Assay results published in patent US7091369B2, “Synthesis of polyconjugated fatty acids” (Board of Trustees Operating Michigan State University, priority 2003, dated 2006).

Legend:
[1] = spontaneous isomerisation at room temperature monitored by HPLC; format: physicochemical
Source text: The main difference between the spectra is the hypsochromic shift of the Compound 2 peak maxima of about 3 nm.

| SMILES | oxidative metabolism (HEK293 cells) | elongation to a 22 carbon fatty acid (HEK293 cells; compared with AA or EPA) | cellular uptake and assimilation into complex lipids (HEK293 cells; fractionation of organic extracts on aminopropyl columns) | stability (geometrical isomerisation) [1] |
| --- | --- | --- | --- | --- |
| CC/C=C\C/C=C\C/C=C/C=C/C=C/C=C/CCCC(=O)O [5E,7E,9E,11E,14Z,17Z-eicosahexaenoic acid] | appears to be oxidized through a monooxygenation system in HEK293 cells, and the products released to the medium | appeared not to be elongated efficiently to a 22 carbon fatty acid | taken up by the cells and assimilated into complex lipids |  |
| CC/C=C\C/C=C\C\C=C/C=C/C=C/C=C/CCCC(=O)O [Compound 1, 5E,7E,9E,11Z,14Z,17Z-eicosahexaenoic acid] |  |  |  | spontaneous room temperature conversion of Compound 1 to Compound 2 |
